Values of other authors in patent publication US8822870B2, “Dielectric insulation medium” (ABB Technology Ltd., priority 2010, dated 2014).

## O=C(C(F)(F)C(F)(F)F)C(F)(C(F)(F)F)C(F)(F)F [C6-ketone, 1,1,1,2,4,4,5,5,5-Nonafluoro-2-(trifluoromethyl)pentan-3-one]
  LC50 4 hours: about 100,000 ppm
